Publication PMC11845761, “Intestinal human carboxylesterase 2 (CES2) expression rescues drug metabolism and most metabolic syndrome phenotypes in global Ces2 cluster knockout mice” (Acta Pharmacologica Sinica, 2024)

Columns and labels:
[1] = Tissue concentrations of vinorelbine and deacetylvinorelbine 4 h after oral vinorelbine in CES2-modified mice; assay type: in vivo, mouse; conditions: oral vinorelbine 10 mg/kg
Protocol: (§1) For capecitabine 2-h experiments, 6–7 female mice received oral capecitabine (500 mg/kg, 10 μL/g), and tail vein blood samples were collected at 0.125, 0.25, 0.5 and 1 h after drug administration. For the vinorelbine 4-h experiment, 6-7 male mice received vinorelbine intravenously (10 mg/kg, 5 μL/g) or orally (10 mg/kg, 10 μL/g) using a blunt-ended needle. Tail vein blood samples were collected at 0.125, 0.25, 0.5, 1 and 2 h after drug administration. […] At the last time point in each experiment (2 or 4 h), mice were anesthetized with 5% isoflurane and blood was collected by cardiac puncture. […] Plasma was isolated from the blood by centrifugation at 9000 × g for 6 min at 4 °C, and the plasma fraction was collected and stored at −30 °C until analysis.
(§2) Concentrations of capecitabine (and its metabolites) and vinorelbine (and its metabolite) in mouse plasma samples and organ homogenates were determined using two independent validated high-performance liquid chromatography-tandem mass spectrometry assays.
(§3) Pharmacokinetic parameters were calculated by non-compartmental methods using the PK solver software. […] Differences were considered statistically significant when P < 0.05. All data are presented as mean ± SD.

[2] = Tissue concentrations of vinorelbine and deacetylvinorelbine 4 h after i.v. vinorelbine in CES2-modified mice; assay type: in vivo, mouse; conditions: i.v. vinorelbine 10 mg/kg
Protocol: as §1, §2, §3

CCC1=C[C@@H]2CN(C1)Cc1c([nH]c3ccccc13)[C@@](C(=O)OC)(c1cc3c(cc1OC)N(C)[C@H]1[C@@](O)(C(=O)OC)[C@H](O)[C@]4(CC)C=CCN5CC[C@]31[C@@H]54)C2 [Deacetylvinorelbine, 4’-O-deacetylvinorelbine]
CSI (small intestine tissue concentration) ([1]; male Ces2^–/– mice): 625 ± 219 ng/g | CSIC (small intestine contents concentration) ([1]; male Ces2^–/– mice): 1091 ± 405 ng/g | Ccolon (colon concentration) ([1]; male Ces2^–/– mice): 5.0 ± 2.1 ng/g | Cliver (liver concentration) ([1]; male Ces2^–/– mice): 82 ± 29 ng/g | Colon Ratio (x 10^-3) (deacetylvinorelbine /vinorelbine) ([1]; male Ces2^–/– mice): 8.4 ± 1.5 x 10^-3 | Liver Ratio (x 10^-3) (deacetylvinorelbine /vinorelbine) ([1]; male Ces2^–/– mice): 15 ± 7.5 x 10^-3 | Small intestine Ratio (x 10^-3) (deacetylvinorelbine /vinorelbine) ([1]; male Ces2^–/– mice): 34 ± 10.0 x 10^-3 | Small intestine contents Ratio (x 10^-3) (deacetylvinorelbine /vinorelbine) ([1]; male Ces2^–/– mice): 6.7 ± 1.4 x 10^-3 | liver deacetylvinorelbine-to-vinorelbine ratio, fold decrease vs wild-type ([1]; male Ces2^–/– mice): 333 fold | small intestine tissue deacetylvinorelbine-to-vinorelbine ratio ([1]; male Ces2^–/– mice): 0.034 ± 0.010 | CSI (small intestine tissue concentration) ([1]; male Ces2^–/–A mice): 748 ± 225 ng/g | CSIC (small intestine contents concentration) ([1]; male Ces2^–/–A mice): 1120 ± 623 ng/g | Ccolon (colon concentration) ([1]; male Ces2^–/–A mice): 6.0 ± 2.6 ng/g | Cliver (liver concentration) ([1]; male Ces2^–/–A mice): 162 ± 52 ng/g | Colon Ratio (x 10^-3) (deacetylvinorelbine /vinorelbine) ([1]; male Ces2^–/–A mice): 7.8 ± 2.6 x 10^-3 | Liver Ratio (x 10^-3) (deacetylvinorelbine /vinorelbine) ([1]; male Ces2^–/–A mice): 19 ± 1.7 x 10^-3 | Small intestine Ratio (x 10^-3) (deacetylvinorelbine /vinorelbine) ([1]; male Ces2^–/–A mice): 39 ± 8.0 x 10^-3 | Small intestine contents Ratio (x 10^-3) (deacetylvinorelbine /vinorelbine) ([1]; male Ces2^–/–A mice): 5.9 ± 1.6 x 10^-3 | liver deacetylvinorelbine-to-vinorelbine ratio, fold decrease vs wild-type ([1]; male Ces2^–/–A mice): 263 fold | small intestine tissue deacetylvinorelbine-to-vinorelbine ratio ([1]; male Ces2^–/–A mice): 0.039 ± 0.008 | CSI (small intestine tissue concentration) ([1]; male Ces2^–/–V mice): 808 ± 578 ng/g | CSIC (small intestine contents concentration) ([1]; male Ces2^–/–V mice): 957 ± 441 ng/g | Ccolon (colon concentration) ([1]; male Ces2^–/–V mice): 8.1 ± 4.8 ng/g | Cliver (liver concentration) ([1]; male Ces2^–/–V mice): 178 ± 110 ng/g | Colon Ratio (x 10^-3) (deacetylvinorelbine /vinorelbine) ([1]; male Ces2^–/–V mice): 13 ± 3.7 x 10^-3 | Liver Ratio (x 10^-3) (deacetylvinorelbine /vinorelbine) ([1]; male Ces2^–/–V mice): 21 ± 7.8 x 10^-3 | Small intestine Ratio (x 10^-3) (deacetylvinorelbine /vinorelbine) ([1]; male Ces2^–/–V mice): 49 ± 15 x 10^-3 | Small intestine contents Ratio (x 10^-3) (deacetylvinorelbine /vinorelbine) ([1]; male Ces2^–/–V mice): 8.4 ± 3.4 x 10^-3 | liver deacetylvinorelbine-to-vinorelbine ratio, fold decrease vs wild-type ([1]; male Ces2^–/–V mice): 238 fold | small intestine tissue deacetylvinorelbine-to-vinorelbine ratio ([1]; male Ces2^–/–V mice): 0.049 ± 0.015 | CSI (small intestine tissue concentration) ([1]; male wild-type mice): 9590 ± 4337 ng/g | CSIC (small intestine contents concentration) ([1]; male wild-type mice): 15491 ± 4320 ng/g | Ccolon (colon concentration) ([1]; male wild-type mice): 369 ± 240 ng/g | Cliver (liver concentration) ([1]; male wild-type mice): 7589 ± 2725 ng/g | Colon Ratio (x 10^-3) (deacetylvinorelbine /vinorelbine) ([1]; male wild-type mice): 1000 ± 390 x 10^-3 | Liver Ratio (x 10^-3) (deacetylvinorelbine /vinorelbine) ([1]; male wild-type mice): 5000 ± 1000 x 10^-3 | Small intestine Ratio (x 10^-3) (deacetylvinorelbine /vinorelbine) ([1]; male wild-type mice): 880 ± 220 x 10^-3 | Small intestine contents Ratio (x 10^-3) (deacetylvinorelbine /vinorelbine) ([1]; male wild-type mice): 220 ± 73 x 10^-3 | liver deacetylvinorelbine-to-vinorelbine ratio ([1]; male wild-type mice): 5.0 ± 1.0 | small intestine tissue deacetylvinorelbine-to-vinorelbine ratio ([1]; male wild-type mice): 0.88 ± 0.22 | CSI (small intestine tissue concentration) ([2]; male Ces2^–/– mice): 87 ± 15 ng/g | CSIC (small intestine contents concentration) ([2]; male Ces2^–/– mice): 291 ± 180 ng/g | Ccolon (colon concentration) ([2]; male Ces2^–/– mice): 58 ± 45 ng/g | Cliver (liver concentration) ([2]; male Ces2^–/– mice): 487 ± 127 ng/g | Colon Ratio (x 10^-3) (deacetylvinorelbine /vinorelbine) ([2]; male Ces2^–/– mice): 9.4 ± 3.8 x 10^-3 | Liver Ratio (x 10^-3) (deacetylvinorelbine /vinorelbine) ([2]; male Ces2^–/– mice): 21 ± 1.9 x 10^-3 | Small intestine Ratio (x 10^-3) (deacetylvinorelbine /vinorelbine) ([2]; male Ces2^–/– mice): 15 ± 1.2 x 10^-3 | Small intestine contents Ratio (x 10^-3) (deacetylvinorelbine /vinorelbine) ([2]; male Ces2^–/– mice): 7.4 ± 1.0 x 10^-3 | liver deacetylvinorelbine-to-vinorelbine ratio ([2]; male Ces2^–/– mice): 0.021 ± 0.002 | small intestine conversion ratio (deacetylvinorelbine-to-vinorelbine) ([2]; male Ces2^–/– mice): 0.015 ± 0.001 | CSI (small intestine tissue concentration) ([2]; male Ces2^–/–A mice): 79 ± 13 ng/g | CSIC (small intestine contents concentration) ([2]; male Ces2^–/–A mice): 400 ± 315 ng/g | Ccolon (colon concentration) ([2]; male Ces2^–/–A mice): 42 ± 43 ng/g | Cliver (liver concentration) ([2]; male Ces2^–/–A mice): 584 ± 157 ng/g | Colon Ratio (x 10^-3) (deacetylvinorelbine /vinorelbine) ([2]; male Ces2^–/–A mice): 7.0 ± 3.7 x 10^-3 | Liver Ratio (x 10^-3) (deacetylvinorelbine /vinorelbine) ([2]; male Ces2^–/–A mice): 25± 7.0 x 10^-3 | Small intestine Ratio (x 10^-3) (deacetylvinorelbine /vinorelbine) ([2]; male Ces2^–/–A mice): 14 ± 1.0 x 10^-3 | Small intestine contents Ratio (x 10^-3) (deacetylvinorelbine /vinorelbine) ([2]; male Ces2^–/–A mice): 8.1 ± 1.1 x 10^-3
